Assay results published in DBAASP.
In brackets after ≈: the same amount, converted by molar mass. Several values for one entry are separate records, joined by “and”; a condition that tells them apart may be missing. Identical values can stand only once. One block for each molecule: values may come before it.

Experiments:
Experiment in all cases: ≥ marks a high value that may be exact or a test limit, other limits are often not marked, values filed in µg/mL are converted to µM
[1] = tested on: Pseudomonas aeruginosa CGMCC 1.50
[2] = tested on: Psychrobacter faecalis X29
[3] = tested on: Bacillus licheniformis X39
[4] = tested on: Escherichia coli ATCC 25922
Serratia rubidaea X01 = tested on: Serratia rubidaea X01
[5] = tested on: Enterococcus faecalis 981
[6] = tested on: Rhodococcus rhodochrous X15
[7] = tested on: Candida albicans ATCC 10231
[8] = tested on: Staphylococcus carnosus KHS
[9] = tested on: Staphylococcus aureus ATCC 25923
[10] = tested on: Klebsiella pneumoniae 08040724
[11] = tested on: Pseudomonas aeruginosa 11053
[12] = tested on: Mycoplasma mycoides ssp. mycoides SC KH3J
[13] = tested on: Spiroplasma floricola BNR 1
Spiroplasma citri R8A2 = tested on: Spiroplasma citri R8A2
[14] = tested on: Spiroplasma melliferum BC3
[15] = tested on: Acholeplasma laidlawii A-EF22
[16] = tested on: Klebsiella pneumoniae K6 ATCC 700603
Escherichia coli D31 = tested on: Escherichia coli D31
Escherichia coli 45849 = tested on: Escherichia coli 45849
[17] = tested on: Agrobacterium tumefaciens ATCC 15955
[18] = tested on: Micrococcus luteus ATCC 10240
[19] = tested on: Salmonella enterica subsp. enterica serovar Typhimurium ATCC 700408
[20] = tested on: Salmonella enterica subsp. enterica serovar Typhi S5
Escherichia coli BL21AI = tested on: Escherichia coli BL21AI
[21] = tested on: Klebsiella pneumoniae 123132
[22] = tested on: Acinetobacter baumannii ATCC 19606
[23] = tested on: Pseudomonas aeruginosa ATCC 27853
[24] = tested on: Staphylococcus epidermidis LT1324
Staphylococcus simulans = tested on: Staphylococcus simulans
Micrococcus luteus = tested on: Micrococcus luteus
[25] = tested on: Staphylococcus aureus II ATCC 6538P
Acinetobacter baumannii = tested on: Acinetobacter baumannii
Escherichia coli D21 = tested on: Escherichia coli D21

MIC [1]: ≥ 75 µM
MIC [2]: 9 µM (≈ 23.6 µg/mL)
MIC [3]: 2.3 µM (≈ 6.02 µg/mL)
MIC [4]: 75 µM (≈ 196 µg/mL)
MIC (Serratia rubidaea X01): 4.6 µM (≈ 12 µg/mL)
MIC [5]: 9 µM (≈ 23.6 µg/mL)
MIC [6]: 0.6 µM (≈ 1.57 µg/mL)
MIC [7]: 37.5 µM (≈ 98.2 µg/mL)
MIC [8]: 1.2 µM (≈ 3.14 µg/mL)
MIC [9]: 9 µM (≈ 23.6 µg/mL)
MIC [10]: ≥ 150 µM
MIC [11]: ≥ 75 µM
Structure (SMILES): CC[C@H](C)[C@H](NC(=O)[C@H](CCCCN)NC(=O)[C@@H]1CCCN1C(=O)[C@H](CC(C)C)NC(=O)[C@H](Cc1ccccc1)NC(=O)[C@H](CC(N)=O)NC(=O)[C@H](C)NC(=O)[C@H](C)NC(=O)[C@H](CC(C)C)NC(=O)CNC(=O)[C@H](C)NC(=O)[C@H](CC(C)C)NC(=O)[C@H](CCSC)NC(=O)[C@@H]1CCCN1C(=O)[C@H](CC(C)C)NC(=O)[C@@H](N)Cc1ccccc1)C(=O)N[C@H](C(=O)N[C@H]1CSSC[C@@H](C(=O)O)NC(=O)[C@H](CCCCN)NC(=O)[C@H](CCCCN)NC(=O)[C@H]([C@@H](C)O)NC(=O)[C@H]([C@@H](C)CC)NC(=O)[C@H](CCCCN)NC1=O)C(C)C [FLPMLAGLAANFLPKIVCKITKKC]

MIC [12]: 12.5 µM (≈ 24.9 µg/mL)
MIC [13]: 6.25 µM (≈ 12.4 µg/mL)
MIC (Spiroplasma citri R8A2): 6.25 µM (≈ 12.4 µg/mL)
MIC [14]: 6.25 µM (≈ 12.4 µg/mL)
MIC [15]: 0.78 µM (≈ 1.55 µg/mL)
Structure (SMILES): CC(C)C[C@H](NC(=O)[C@H](CCCCN)NC(=O)[C@H](CC(C)C)NC(=O)[C@H](CC(C)C)NC(=O)[C@H](CCCCN)NC(=O)[C@H](CC(C)C)NC(=O)[C@H](CC(C)C)NC(=O)[C@H](CCCCN)NC(=O)[C@H](CC(C)C)NC(=O)[C@H](CC(C)C)NC(=O)[C@H](CCCCN)NC(=O)[C@H](CC(C)C)NC(=O)[C@H](CC(C)C)NC(=O)[C@@H](N)CCCCN)C(=O)N[C@@H](Cc1c[nH]c2ccccc12)C(=O)N[C@@H](CCCCN)C(=O)O [KLLKLLKLLKLLKLWK]

MIC [16]: 3.67 µM (≈ 8 µg/mL)
MIC (Escherichia coli D31): 3.67 µM (≈ 8 µg/mL)
MIC (Escherichia coli 45849): 0.115 µM (≈ 0.25 µg/mL)
MIC [17]: 0.298 µM (≈ 0.65 µg/mL)
MIC [18]: 0.634 µM (≈ 1.38 µg/mL)
MIC [19]: 0.162 µM (≈ 0.353 µg/mL)
MIC [20]: 0.459 µM (≈ 1 µg/mL)
MIC (Escherichia coli BL21AI): 1.27 µM (≈ 2.76 µg/mL)
MIC [21]: 1.84 µM (≈ 4 µg/mL)
Structure (SMILES): CC[C@H](C)[C@H](NC(=O)[C@H](Cc1ccc(O)cc1)NC(=O)[C@@H](NC(=O)[C@@H]1CCCN1C(=O)[C@H](CCCN=C(N)N)NC(=O)[C@H](CC(N)=O)NC(=O)[C@H](CC(N)=O)NC(=O)[C@@H](N)CCCCN)C(C)C)C(=O)N1CCC[C@H]1C(=O)N[C@@H](CCCCN)C(=O)N1CCC[C@H]1C(=O)N[C@@H](CCCN=C(N)N)C(=O)N1CCC[C@H]1C(=O)N1CCC[C@H]1C(=O)N[C@@H](Cc1cnc[nH]1)C(=O)N1CCC[C@H]1C(=O)N[C@@H](CCCN=C(N)N)C(=O)N[C@@H](CC(C)C)C(N)=O [KNNRPVYIPKPRPPHPRL]

MIC [22]: 1 µM (≈ 1.8 µg/mL)
MIC [4]: 13 µM (≈ 23.5 µg/mL)
MIC [23]: 24.9 µM and 25 µM
MIC [24]: 4 µM (≈ 7.22 µg/mL)
MIC (Staphylococcus simulans): 2 µM (≈ 3.61 µg/mL)
MIC (Micrococcus luteus): 2 µM (≈ 3.61 µg/mL)
MIC [25]: 3 µM (≈ 5.41 µg/mL)
MIC (Acinetobacter baumannii): 6.2 µM (≈ 11.2 µg/mL)
MIC (Escherichia coli D21): 13 µM (≈ 23.5 µg/mL)
Structure (SMILES): CC(C)C[C@H](NC(=O)[C@H](CC(C)C)NC(=O)[C@H](CCCCN)NC(=O)[C@H](CC(C)C)NC(=O)[C@H](CC(C)C)NC(=O)[C@H](CCCCN)NC(=O)[C@H](CCCCN)NC(=O)[C@H](CC(C)C)NC(=O)[C@H](CC(C)C)NC(=O)[C@H](CCCCN)NC(=O)[C@H](CCCCN)NC(=O)[C@H](CC(C)C)NC(=O)[C@H](CC(C)C)NC(=O)[C@H](CCCCN)NC(=O)[C@@H](N)CC(C)C)C(N)=O [LKLLKKLLKKLLKLL]
